Series [1] deals with relaxin antibody. The series can be described thus: Antibody-based ELISA of PEGylated relaxin. It counts as binding. Particulars: Quantikine ELISA, six dilutions. (In general: In an ELISA, binding on a coated surface is turned into a signal by an enzyme label.)
The test system of series [2] is NIH 373 murine fibroblasts. In words: cAMP levels in fibroblasts exposed to relaxin. In kind it is cell-based. Particulars: cultured NIH 373 murine fibroblasts exposed to relaxin. The protocol: The activity of recombinant relaxin (RLN2) was validated by measuring upregulation in the production of cAMP, a secondary metabolite of the relaxin signaling pathway. Increases in cAMP lead to increased MMP expression and decreased collagen and TIMP expression. To validate the activity of RLN2, cultured NIH 373 murine fibroblasts were exposed to relaxin, and the resulting cAMP levels were measured.
For orientation: cAMP levels reflect the balance of adenylyl cyclase and phosphodiesterase activity.

Series [3] concerns rat shoulder contracture model (glenohumeral joint). In words: ROM measurement in rat shoulder contracture model (Example 2). Particulars: for Final ROM, Total ROM: 8 weeks follow-up; for Difference ROM (% Δ°), External ROM / Difference ROM (% Δ°), Internal ROM / Difference ROM (% Δ°), Total ROM: final versus baseline. In kind it is in vivo, Sprague Dawley rats. The protocol:
On the approval of the Institutional Animal Care and Use Committee (IACUC) at Beth Israel Deaconess Medical Center, 20 Female Sprague Dawley rats (250-300 g, Charles River Laboratories, Inc., Wilmington, Mass., USA) were chosen for this study. Baseline ROM measurements were taken for both forelimbs of each rat prior to any surgical intervention. Torque measurements were recorded at […] (τINT) and 60° of external rotation (τOUT), totaling a full 160° range of motion (ROM) (FIG. 4, Panels B and C). These measurements were required as they indicate a baseline for normal torque necessary to achieve both rotations. The specific rotation angles were chosen under fluoroscopic guidance to ensure minimal scapular recruitment, while simultaneously allowing for maximum humeral rotation within the joint space. Each ROM measurement was repeated three times to ensure consistency. All measurements were also performed under anesthesia to prevent any active muscle activation from interfering with the passive capsular resistance. Induction of the rats was performed at 5% isoflurane inhalation, and maintenance was managed at a 2% isoflurane dose.
After the baseline measurements and under anesthesia, 20 rats were subjected to the immobilization procedure as outlined in Example 1 and in Villa-Camacho et al., Journal of Shoulder and Elbow Surgery, 2015, 24(11):1809-16, to induce fibrosis. In short, an incision was created longitudinally on the left limb, perpendicular to the scapular spine, to expose both the scapula and humerus. A No. 2-0 Ethibond polyester suture (Ethicon, San Lorenzo, PR, USA) was used to immobilize the humerus to the scapula by passing two loops through the medial border of the scapula and against the humeral shaft (FIG. 4, Panel A). Care was taken to ensure that the sutures avoided critical vasculature, musculature, and nerves. Each rat was maintained under fixation for 8 weeks. After the eighth week, the suture fixations were removed, and the rats were randomly placed in four groups: (1) intra-articular relaxin, single dose (IAS) (n=5); (2) intra-articular relaxin, multiple doses (IAM) (n=5); (3) intravenous relaxin, multiple doses (IVM) (n=5); and (4) untreated surgical controls (n=5). The sample size was determined with a power of 0.80 and α=0.05 if a 10% increase in range of motion from contracture was to be expected.
The mechanical testing apparatus was assembled with four core components and controlled with a computer through custom-built software written on MATLAB 7.13.0.564 (The MathWorks, Inc., Natick, Mass., USA). Movement of the forelimb was mediated by a stepper motor controlled by a microcontroller (UNO R3; Arduino, Torino, Italy). The motor was then positioned axially with the reaction torque sensor (TFF400; FUTEK Advanced Sensor Technology, Inc., Irvine, Calif., USA), which measured torque and was utilized as an input feedback for the system. Along the same axis, the arm clamp and the 3-axis inclinometer (3DM-GX3-15; MicroStrain, Inc., Williston, Vt., USA) were attached on the sensing side of the torque sensor. The inclinometer also provided both positional feedback as well as angular measurements for the system. The entire assembly was positioned above the rat with the sensing plane parallel to the ground to ensure that gravity had little impact on the torque measurements (FIG. 4). The apparatus was programmed to move to a specified torque or angle for internal and external rotation for each rat. Plastic zip ties were used to secure the rat forelimb in the apparatus. Care was taken to prevent any injury, and the apparatus was programmed with an internal and external limit switch in the case the apparatus operated abnormally.
Immediately after removal of the restraining sutures, relaxin was administered to the noncontrol group rats. […]

For series [4], the system named is glenohumeral joint capsule and articular cartilage. In kind it is in vivo, Sprague Dawley rats. The source says: At the conclusion of the follow-up period, the rats were euthanized according to IACUC guidelines. The rats were weighed and then subjected to CO2 exposure for euthanasia, and further confirmed through a bilateral thoracotomy. The shoulders were bilaterally harvested by disarticulating the humerus from the ulna, and removing the scapula from the clavicle and thoracic cavity. Excess muscle tissue not immediately surrounding the glenohumeral joint capsule was removed. The excised shoulders were decalcified for two months in a solution of ethylenediaminetetraacetic acid (EDTA), which was changed every two to three days. Once decalcified, the shoulders were affixed in a solution of 10% formalin and then mounted in paraffin stacks for histological sectioning at the Beth Israel Deaconess Medical Center (BIDMC) Histology Core. These stacks were mounted so that coronal slicing could be obtained. The slices were stained with hematoxylin and eosin (H&E) and examined for any morphological changes. These slices were taken from a posterior region of humeral head to better find evidence of periarticular adhesions (Brue et al., Knee Surg. Sports Traumatol. Arthrosc., 2007, 15(8):1048-54; White et al., Radiographics, 2016, 36(3):824-39). Further slices, taken mid-coronally, were also stained with fibronectin antibodies paired with peroxidase to further examine fibrotic characteristics such as capsular thickening. Collagen III, α-smooth muscle actin, and other acute fibrotic markers were not chosen for analysis, since histologic sectioning would occur 4 months after contracture creation. The specimen chosen to undergo histological analysis were the surgical control group and the IAM group. The IAM group was chosen because this group received the highest and most frequent dose of relaxin, and was, therefore, the best candidate to showcase any morphologic changes due to relaxin administration. The contralateral shoulders from the surgical control group were used to model a healthy control shoulder for histologic comparisons.

For series [5] the following is noted: in vivo; cited from earlier work.
Where [6] appears, read: IAM: intra-articular, multiple doses, final measurement.
The mark [7] stands for this setting: IAS: intra-articular, single dose, final measurement.
[8] abbreviates: IVM: intravenous, multiple doses, final measurement.

The source of these data is patent US11723957B2, “Compositions comprising relaxin and methods of use thereof” (Beth Israel Deaconess Medical Center, Inc., priority 2016, dated 2023).

Values joined by “and” are separate entries in the source; they are usually repeats but may differ in a detail not shown here. Equal values may be shown once. “Also recorded” adds a separate entry of the source. No end group written: not given here.

For the substance “PEGylated relaxin: relaxin reacted with mPEG-SVA (2000 MW); product conjugated with two PEG chains (chain 1 QLYSALANKCCHVGCTKRSLARFC; chain 2 DSWMEEVIKLCGRELVRAQIAICGMSTWS; not fully specified (bridges); ends and bridges not checked)”, the “Recognition by the relaxin antibody” value in series [1] is reported as “recognized by the relaxin antibody”.
Regarding relaxin, the cAMP levels entry in series [2] is recorded as “dose-dependent upregulation of cAMP levels”. Further, the “Treatment of shoulder contracture, overall result” value in series [3] (5 intra-articular doses of 0.0005 mg over 10 days (total 0.0025 mg)) is given as “effective in treating shoulder contracture; also recorded: full recovery with increased ROM for 60 days”; in series [3] (single intra-articular injection of 0.0005 mg) it was “ineffective”. Besides, the “ROM of healthy contralateral forelimbs / systemic joint laxity” value in series [3] (IAM, IAS and IVM groups) is reported as “no significant change from baseline; also recorded: no systemic joint laxity was present”. The “Final ROM, Total ROM” value in series [3] (IAM: intra-articular, multiple doses (5 x 0.0005 mg every 2 days), final measurement) was 159.13 ± 6.97 °; in series [3] (IAS: intra-articular, single dose 0.0005 mg, final measurement) it was 138.40 ± 15.34 °; in series [3] (IVM: intravenous, multiple doses (5 x 0.17 mg every 2 days), final measurement), 127.93 ± 16.35 °. Moreover, the “Final ROM, External ROM” value in series [3] (setting [6]) is reported as 60.27 ± 11.05 °; in series [3] (setting [7]) it was 63.13 ± 14.20 °; in series [3] (setting [8]) it was 54.67 ± 15.30 °. Moreover, the “Final ROM, Internal ROM” value in series [3] (setting [6]) was determined as 98.87 ± 10.63 °; in series [3] (setting [7]), 75.27 ± 15.62 °; in series [3] (setting [8]), 73.27 ± 10.35 °. Further, the “Total ROM compared with surgical control group (statistics)” value in series [3] (IAM, final measurement, P<0.01) is on record as “significantly improved when compared with the control group”. In addition, the “Total ROM compared with baseline measurements (statistics)” value in series [3] (IAM, final measurement, P=0.94) is “not statistically different from the baseline measurements”. Moreover, the results for the “Difference ROM (% Δ°), External ROM” value in series [3] (IAM), in series [3] (IAS) and in series [3] (IVM) were 1.01%, 5.22% and −7.87%, respectively. In addition, the entries for the “Difference ROM (% Δ°), Internal ROM” value in series [3] (IAM), in series [3] (IAS) and in series [3] (IVM) were −0.27%, −24.83% and −26.24%, respectively. The “Difference ROM (% Δ°), Total ROM” value is 0.21% in series [3] (IAM); −13.57% in series [3] (IAS); −19.42% and −19.37% in series [3] (IVM). For the same substance, the “Increase in total ROM compared with surgical control (statistics)” value in series [3] (IAS, final measurement) is recorded as “not found to be significant”. Also, the “Restriction of total ROM compared with baseline” value is −21.72 ° in series [3] (IAS, final measurement) and −30.73 ° in series [3] (IVM, final measurement). In addition, the “Improvement in ROM over the surgical control group” value in series [3] (IAS, measurement immediately following day 0, P=0.025) was 11.87 °. The “Capsular adhesions, H&E stained sections” value in series [4] (IAM group, end of follow-up) is on record as “lacked any apparent adhesions”. Further, in series [4] (IAM group, end of follow-up), the “Capsular tissue thickness, fibronectin stain” value is listed as “return to normal thickness in capsular tissue”. In addition, the “Peroxidase intensity (fibronectin stain) in and around capsular tissue” value in series [4] (IAM group, end of follow-up) was “reduction in peroxidase intensity”. Moreover, the “Articular cartilage quality, OARSI grading system” value in series [4] (rat, in vivo) is “between a grade 1 and grade 2 level of osteoarthritis”. In addition, in series [4] (rat, in vivo), the “Fibrillation of the articular surface, H&E” value is “both superficial and deep fibrillation within the articular surface”. Further, the Half-life entry in series [5] is “about 2.5 hours”.
